# Laboratory results from patent publication US11192921B2 (priority 2017, dated 2021).
# “And” between values parts separate entries of the source, which are not always exact repeats. Equal entries are not always repeated. Where two headings read alike, the source gives them in different places. Marks after values point to notes of the source that are not given here. No end group written: not given here.
# Assays:
# Female Kunming mice [1] = tested on: Female Kunming mice
# SD rats = assay: pain threshold of trigeminal nerve (trigeminal neuralgia model); format: in vivo; details: for highest pain threshold on the operative side / pain threshold on the opposite side: 3 h after injection; for Pain threshold: intraperitoneal
# Kunming mice [2] = format: in vivo
# Kunming mice [3] = details: mouse, in vivo
# Female Kunming mice [4] = format: in vivo
# Female Kunming mice [5] = tested on: Female Kunming mice; remark: listed apart in the source
# Female Kunming mice [6] = tested on: Female Kunming mice; remark: listed apart in the source
# male BALB/c mice = assay: cancer-induced pain (CIP) model, thermosensitive test; format: in vivo; details: heat radiation stimulation
# Experimental: Influence of Analgesic Polypeptides on Neuralgia in a Cancer-Induced Pain (CIP) Model
# A number of male BALB/c mice each weighing 25-30 g were used.
# Von Fery monofilament; a microsyringe, 5 mg/mL solutions of polypeptides I, II and II I; normal saline.
# BALB/c mice were taken, and the right sciatic nerve was exposed; ascites containing 5×10^4 Meth A sarcoma cells were injected into the proximal nerve near the sciatic nerve trochanter far from the tendon branch of the posterior biceps, the wound was closed, and the same volume of normal saline was injected into the left side by performing a sham operation.
# 1.3.1 Thermosensitive Test
# On the 4th, 7th, 10th and 14th days after inoculation, the latency of foot lifting caused by heat radiation stimulation to animals was observed, and the heat radiation intensity was adjusted to cause the latency of foot lifting of normal mice to be (10±2) s.
# All data was expressed as M±SD and subjected to one-way ANOVA.
# [7] = 50 μg/kg, injected subcutaneously
# [8] = 100 μg/kg, injected subcutaneously
sequence,measurement,setting,value
"KCSTPPDAVLYC (cysteine pairing not given here) [Polypeptide III, one pair of disulfide bonds formed between the two cysteines]",Movement distances of mice in open field tests,Female Kunming mice [1]; 1 h,18.27 ± 1.22^
same,Movement distances of mice in the center area in open field tests,Female Kunming mice [1]; 1 h,18.57 ± 1.22^
same,Movement distances of mice in the peripheral area in open field tests,Female Kunming mice [1]; 1 h,19.47 ± 1.32^
same,Number of entrances to the center area in open field tests,Female Kunming mice [1]; 1 h,18.47 ± 0.32^
same,Number of entrances to the peripheral area in open field tests,Female Kunming mice [1]; 1 h,18.57 ± 1.42^
same,Residence time in the center area in open field tests,Female Kunming mice [1]; 1 h,18.37 ± 1.22^ s
same,Residence time in the peripheral area in open field tests,Female Kunming mice [1]; 1 h,14.27 ± 1.34^ s
same,Movement distances of mice in open field tests,Female Kunming mice [1]; 24 h,19.13 ± 2.38 m
same,Movement distances of mice in the center area in open field tests,Female Kunming mice [1]; 24 h,18.13 ±1.38 m
same,Movement distances of mice in the peripheral area in open field tests,Female Kunming mice [1]; 24 h,19.03 ± 2.48 m
same,Number of entrances to the center area in open field tests,Female Kunming mice [1]; 24 h,18.23 ± 1.48
same,Number of entrances to the peripheral area in open field tests,Female Kunming mice [1]; 24 h,17.13 ± 2.18
same,Residence time in the center area in open field tests,Female Kunming mice [1]; 24 h,18.13 ± 1.38 s
same,Residence time in the peripheral area in open field tests,Female Kunming mice [1]; 24 h,18.13 ± 1.45 s
same,Movement distances of mice in open field tests,Female Kunming mice [1]; Time 0,21.28 ± 1.28 m
same,Movement distances of mice in the center area in open field tests,Female Kunming mice [1]; Time 0,21.88 ±1.18 m
same,Movement distances of mice in the peripheral area in open field tests,Female Kunming mice [1]; Time 0,20.98 ± 1.28 m
same,Number of entrances to the center area in open field tests,Female Kunming mice [1]; Time 0,21.28 ± 1.28
same,Number of entrances to the peripheral area in open field tests,Female Kunming mice [1]; Time 0,21.28 ± 1.38
same,Residence time in the center area in open field tests,Female Kunming mice [1]; Time 0,21.78 ± 1.17 s
same,Residence time in the peripheral area in open field tests,Female Kunming mice [1]; Time 0,21.88 ± 1.38 s
same,side effects compared with conotoxin (open field),"Female Kunming mice [1]; mouse, in vivo, ip",lower side effects
same,various indexes in open field experiments compared with the normal saline group,"Female Kunming mice [1]; mouse, in vivo, ip",no significant difference
same,animal reaction thresholds,"SD rats; 50 μg/kg and 100 μg/kg, injected subcutaneously",significantly increased
same,time the pain thresholds lasted,SD rats; [7],1 h
same,highest pain threshold on the operative side,SD rats; [7],2.3 ± 0.5 g
same,pain threshold on the opposite side,SD rats; [7],1.2 ± 0.2 g
same,time the effect on the operative side lasted,SD rats; [8],about 8 h
same,highest pain threshold on the operative side,SD rats; [8],7.4 ± 0.9 g
same,pain threshold on the opposite side,SD rats; [8],3.2 ± 1.3 g
same,pain threshold change,"SD rats; 300 μg/kg, subcutaneously",not significantly increased
same,Pain threshold,"SD rats; Dose 50 (μg/kg), 0 h",25.98 ± 0.11 s
same,Pain threshold,"SD rats; Dose 50 (μg/kg), 1 h",26.25 ± 0.46 s
same,Pain threshold,"SD rats; Dose 50 (μg/kg), 2 h",26.69 ± 0.62 s
same,Pain threshold,"SD rats; Dose 50 (μg/kg), 3 h",26.91 ± 0.49 s
same,Pain threshold,"SD rats; Dose 50 (μg/kg), 4 h",27.91 ± 0.26 s
same,Pain threshold,"SD rats; Dose 50 (μg/kg), 5 h",26.91 ± 0.61 s
same,Pain threshold,"SD rats; Dose 100 (μg/kg), 0 h",26.56 ± 0.23 s
same,Pain threshold,"SD rats; Dose 100 (μg/kg), 1 h",27.65 ± 0.61 s
same,Pain threshold,"SD rats; Dose 100 (μg/kg), 2 h",28.16 ± 0.59 s
same,Pain threshold,"SD rats; Dose 100 (μg/kg), 3 h",27.19 ± 0.91 s
same,Pain threshold,"SD rats; Dose 100 (μg/kg), 4 h",28.16 ± 0.61 s
same,Pain threshold,"SD rats; Dose 100 (μg/kg), 5 h",26.16 ± 0.91 s
same,Pain threshold,"SD rats; Dose 300 (μg/kg), 0 h",26.15 ± 0.65 s
same,Pain threshold,"SD rats; Dose 300 (μg/kg), 1 h",31.95 ± 0.56 s
same,Pain threshold,"SD rats; Dose 300 (μg/kg), 2 h",30.21 ± 0.64 s
same,Pain threshold,"SD rats; Dose 300 (μg/kg), 3 h",29.91 ± 0.61 s
same,Pain threshold,"SD rats; Dose 300 (μg/kg), 4 h",28.85 ± 0.41 s
same,Pain threshold,"SD rats; Dose 300 (μg/kg), 5 h",27.92 ± 0.61 s
same,Pain threshold (tail flick),Kunming mice [2]; 0 min,2.31 ± 0.22 s
same,Pain threshold (tail flick),Kunming mice [2]; 15 min,2.22 ± 0.21^∧∧ s
same,Pain threshold (tail flick),Kunming mice [2]; 30 min,2.32 ± 0.12 s
same,Pain threshold (tail flick),Kunming mice [2]; 45 min,4.12 ± 0.12^∧ s
same,Pain threshold (tail flick),Kunming mice [2]; 60 min,2.12 ± 0.21 s
same,Pain threshold (tail flick),Kunming mice [2]; 75 min,2.14 ± 0.12 s
same,Pain threshold (tail flick),Kunming mice [2]; 90 min,3.12 ± 0.14 s
same,difference from the normal saline group during a time period (**P<0.01),"Kunming mice [2]; mouse, in vivo",significantly different from the normal saline group
same,analgesic effects in formalin-induced pain experiments,Kunming mice [3],good analgesic effects
same,"cumulative foot licking time, Phase I",Kunming mice [3],47.19 ± 10.21*^
same,"cumulative foot licking time, Phase II",Kunming mice [3],41.23 ± 13.21
same,Pain threshold,Female Kunming mice [4]; 0 min,29.22 ± 0.11 s
same,Pain threshold,"Female Kunming mice [4]; mouse, in vivo, ip",31.22 ± 0.42^∧∧ s and 33.12 ± 0.32*^∧ s and 27.23 ± 0.42^∧ s and 21.49 ± 0.45^∧ s and 32.14 ± 0.42 s and 21.43 ± 0.24 s
same,heat thresholds of mice compared with the normal saline negative control group,"Female Kunming mice [4]; mouse, in vivo, ip",effectively increase the heat thresholds of mice
same,Movement duration of mice in forced swimming tests,Female Kunming mice [5]; 1 h,18.57 ± 1.21^ s
same,Movement duration of mice in forced swimming tests,Female Kunming mice [5]; 24 h,17.13 ± 1.23 s
same,Movement duration of mice in forced swimming tests,Female Kunming mice [5]; Time 0,21.40 ± 1.38 s
same,toxic side effects compared with the conotoxin (forced swimming),"Female Kunming mice [5]; mouse, in vivo, ip",lower toxic side effects
same,Duration of the immobility of mice in tail suspension tests,Female Kunming mice [6]; 1 h,20.12 ± 1.28 s
same,Duration of the immobility of mice in tail suspension tests,Female Kunming mice [6]; 24 h,19.23 ± 1.84 s
same,Duration of the immobility of mice in tail suspension tests,Female Kunming mice [6]; Time 0,19.28 ± 1.02 s
same,data of tail suspension test compared with the normal saline group,"Female Kunming mice [6]; mouse, in vivo, ip",no significant difference
same,toxic side effects compared with the conotoxin (tail suspension),"Female Kunming mice [6]; mouse, in vivo, ip",lower toxic side effects
same,Latency of foot lifting before administration,male BALB/c mice; before administration,9.77 ± 1.21
same,Latency (D) of foot lifting after administration,male BALB/c mice; day 4,9.45 ± 1.02
same,Latency (D) of foot lifting after administration,male BALB/c mice; day 7,8.88 ± 0.86
same,Latency (D) of foot lifting after administration,male BALB/c mice; day 10,8.26 ± 1.21
same,Latency (D) of foot lifting after administration,male BALB/c mice; day 14,6.78 ± 1.22
